# Data published in US20230416329A1, “A PEPTIDE WITH DISULFIDE BONDS AND INHIBITORY ACTIVITY AGAINST SERINE PROTEASES, DERIVED HYBRID PEPTIDES THEREOF, AND USES THEREOF” (INSTITUTE OF MATERIA MEDICA , CHINESE ACADEMY OF MEDICAL …, priority 2020, published 2023).
# Read-outs that look alike come from different tables or passages of the source.
# How the values were obtained:
# DPP-IV = DPP-IV (Homo sapiens, UniProt P27487); assay: Tolerance of GLP-1 and its analogues to DPP-IV (RP-HPLC remaining peak area); assay type: in vitro ADME; conditions: peptide 25 μM, DPP-IV 0.5 ng/μL, 37° C.; for Remaining peak area (%)/DPP-IV: 0.0 h; for remaining at 0.5 h, 25 μM / remaining at 2 h, 25 μM / remaining at 4 h, 25 μM / remaining at 8 h, 25 μM / remaining at 12 h, 25 μM: isolated DPP-IV enzyme in buffer, pH 8
# Chain of DPP-IV (P27487 whole entry, species assumed): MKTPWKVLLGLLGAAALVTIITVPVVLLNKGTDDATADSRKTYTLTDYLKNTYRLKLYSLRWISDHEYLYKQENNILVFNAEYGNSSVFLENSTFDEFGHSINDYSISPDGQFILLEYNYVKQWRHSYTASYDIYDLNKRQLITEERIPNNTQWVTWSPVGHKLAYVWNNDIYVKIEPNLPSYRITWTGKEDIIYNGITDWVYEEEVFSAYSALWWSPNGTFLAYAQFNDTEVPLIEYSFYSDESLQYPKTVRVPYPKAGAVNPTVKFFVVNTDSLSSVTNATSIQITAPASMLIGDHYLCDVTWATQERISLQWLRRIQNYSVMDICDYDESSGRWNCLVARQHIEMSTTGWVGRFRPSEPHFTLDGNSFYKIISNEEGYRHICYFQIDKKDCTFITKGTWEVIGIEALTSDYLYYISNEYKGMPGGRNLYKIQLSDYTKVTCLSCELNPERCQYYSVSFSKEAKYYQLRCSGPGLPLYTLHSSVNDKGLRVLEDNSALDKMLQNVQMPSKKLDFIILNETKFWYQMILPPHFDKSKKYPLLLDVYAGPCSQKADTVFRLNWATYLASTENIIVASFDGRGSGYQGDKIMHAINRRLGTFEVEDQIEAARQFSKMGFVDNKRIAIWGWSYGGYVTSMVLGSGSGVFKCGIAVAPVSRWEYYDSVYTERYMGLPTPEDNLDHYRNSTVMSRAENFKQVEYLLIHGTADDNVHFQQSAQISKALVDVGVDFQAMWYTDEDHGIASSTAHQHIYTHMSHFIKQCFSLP
# Procedure: (§1) Mix by centrifugation at 8000 rpm for 30 seconds.
# (2) Arrange a certain volume of 0.005 μg/μL DPP-IV solution in another sterile EP.
# chymotrypsin = chymotrypsin (Bos taurus, UniProt P00766); assay: in vitro; conditions: isolated enzyme chymotrypsin, pH 7.8, Remaining peak area (%)/chymotrypsin
# Outline: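 RP-HPLC peak area tracked intact peptide after 37 °C digestion with chymotrypsin (0.05 μg/μL solution, 5 min preincubation). Samples were withdrawn at 1.5-60.0 min and stopped with 10% TFA.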
# NEP24.11 = NEP24.11 (Homo sapiens, UniProt P08473); assay: Tolerance of GLP-1 and its analogues to NEP24.11 (RP-HPLC remaining peak area); assay type: in vitro ADME; conditions: peptide 30 μM, NEP24.11 1.0 ng/μL; for Remaining peak area (%)/NEP24.11: 0.0 h; for remaining at 0.5 h, 30 μM / remaining at 2 h, 30 μM / remaining at 4 h, 30 μM / remaining at 8 h, 30 μM: isolated NEP24.11 enzyme in buffer; for remaining at 0.5 h, 30 μM: pH 7.4, 0.5 h; for remaining at 2 h, 30 μM: pH 7.4, 2.0 h; for remaining at 4 h, 30 μM: pH 7.4, 4.0 h
# Chain of NEP24.11 (P08473 whole entry): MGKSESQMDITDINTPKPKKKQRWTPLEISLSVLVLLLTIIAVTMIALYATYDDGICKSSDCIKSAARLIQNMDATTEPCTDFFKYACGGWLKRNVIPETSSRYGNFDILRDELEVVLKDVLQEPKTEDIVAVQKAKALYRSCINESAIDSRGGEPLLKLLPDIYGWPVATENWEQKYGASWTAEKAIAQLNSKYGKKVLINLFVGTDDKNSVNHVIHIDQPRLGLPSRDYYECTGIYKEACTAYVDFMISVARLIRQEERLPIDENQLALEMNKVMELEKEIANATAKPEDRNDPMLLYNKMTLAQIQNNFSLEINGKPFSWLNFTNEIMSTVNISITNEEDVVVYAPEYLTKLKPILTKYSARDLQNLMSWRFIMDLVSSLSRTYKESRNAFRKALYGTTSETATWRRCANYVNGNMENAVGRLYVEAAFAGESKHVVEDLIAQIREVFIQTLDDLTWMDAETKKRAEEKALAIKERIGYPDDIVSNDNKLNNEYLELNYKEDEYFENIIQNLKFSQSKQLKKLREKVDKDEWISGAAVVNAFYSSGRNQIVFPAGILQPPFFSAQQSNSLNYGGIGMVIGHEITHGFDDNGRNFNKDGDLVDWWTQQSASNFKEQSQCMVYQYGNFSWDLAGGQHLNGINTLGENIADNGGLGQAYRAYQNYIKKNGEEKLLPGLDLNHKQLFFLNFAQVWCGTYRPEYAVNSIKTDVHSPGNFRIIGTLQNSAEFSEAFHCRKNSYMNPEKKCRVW
# Procedure: as §1
# Arrange a certain volume of 0.04 μg/μL NEP24.11 enzyme solution in another sterile EP.
# trypsin = biological target: T1, trypsin (Bos taurus, UniProt P00760); assay: in vitro; conditions: isolated enzyme trypsin, pH 7.8
# T1 sequence (P00760 24-246): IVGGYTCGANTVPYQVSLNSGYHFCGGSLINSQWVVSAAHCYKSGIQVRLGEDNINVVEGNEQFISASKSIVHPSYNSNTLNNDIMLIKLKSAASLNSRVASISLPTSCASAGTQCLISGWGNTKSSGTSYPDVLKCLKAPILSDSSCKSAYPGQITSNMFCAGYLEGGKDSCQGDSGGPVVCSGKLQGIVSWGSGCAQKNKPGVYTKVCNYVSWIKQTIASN
# Outline: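 Remaining RP-HPLC peak area tracks undigested peptide over time. Samples were quenched with 10% TFA at time points between 1.5 and 60 min during 37 °C digestion. Trypsin was added from a 0.05 μg/μL solution after 5 min of thermal equilibration.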
# [1] = Stability of GLP-1 and its analogues in human serum; conditions: 25% (v/v) human serum; for Remaining peak area (%)/human serum: 0.0 h, peptide 0.03 mM, 37° C.; for remaining at 0.5 h, 0.03 mM / remaining at 2 h, 0.03 mM / remaining at 4 h, 0.03 mM / remaining at 8 h, 0.03 mM / remaining at 12 h, 0.03 mM: human, pH 7
# [2] = pH 7.4, 8.0 h, 37° C., read-out: Remaining peak area (%)/NEP24.11
Compound,Remaining peak area (%)/DPP-IV (DPP-IV),"remaining at 0.5 h, 25 μM (DPP-IV)","remaining at 2 h, 25 μM (DPP-IV)","remaining at 4 h, 25 μM (DPP-IV)","remaining at 8 h, 25 μM (DPP-IV)","remaining at 12 h, 25 μM (DPP-IV)","remaining at 0.025 h, 60 μM (chymotrypsin)","remaining at 0.05 h, 60 μM (chymotrypsin)","remaining at 0.075 h, 60 μM (chymotrypsin)","remaining at 0.1 h, 60 μM (chymotrypsin)","remaining at 0.15 h, 60 μM (chymotrypsin)",Remaining peak area (%)/NEP24.11 (NEP24.11; 37° C.),"remaining at 0.5 h, 30 μM (NEP24.11; 37° C.)","remaining at 2 h, 30 μM (NEP24.11; 37° C.)","remaining at 4 h, 30 μM (NEP24.11; 37° C.)","remaining at 8 h, 30 μM (NEP24.11; [2])","remaining at 0.025 h, 60 μM (trypsin)","remaining at 0.05 h, 60 μM (trypsin)","remaining at 0.075 h, 60 μM (trypsin)","remaining at 0.1 h, 60 μM (trypsin)",further results
CC[C@H](C)[C@H](NC(=O)[C@H](Cc1ccccc1)NC(=O)[C@H](CCC(=O)O)NC(=O)[C@H](CCCCN)NC(=O)[C@H](C)NC(=O)[C@H](C)NC(=O)[C@H](CCC(N)=O)NC(=O)CNC(=O)[C@H](CCC(=O)O)NC(=O)[C@H](CC(C)C)NC(=O)[C@H](Cc1ccc(O)cc1)NC(=O)[C@H](CO)NC(=O)[C@H](CO)NC(=O)[C@@H](NC(=O)[C@H](CC(=O)O)NC(=O)[C@H](CO)NC(=O)[C@@H](NC(=O)[C@H](Cc1ccccc1)NC(=O)[C@@H](NC(=O)CNC(=O)[C@H](CCC(=O)O)NC(=O)[C@H](C)NC(=O)[C@H](Cc1c[nH]cn1)NC(=O)CNC(=O)CNC(=O)[C@@H](NC(=O)[C@@H]1CCCN1C(=O)[C@@H](NC(=O)CN)[C@@H](C)CC)[C@@H](C)CC)[C@@H](C)O)[C@@H](C)O)C(C)C)C(=O)N[C@@H](C)C(=O)N[C@@H](Cc1c[nH]c2ccccc12)C(=O)N[C@@H](CC(C)C)C(=O)N[C@H](C(=O)N[C@@H](CCCCN)C(=O)NCC(=O)N[C@@H](CCCNC(=N)N)C(=O)NCC(=O)NCC(=O)N[C@@H](CCCCN)C(=O)NCC(=O)N[C@@H](CCCNC(=N)N)C(=O)N[C@H]1CSSC[C@@H](C(=O)N[C@@H](Cc2ccccc2)C(=O)N2CCC[C@H]2C(=O)O)NC(=O)[C@H]([C@@H](C)CC)NC(=O)[C@@H]2CCCN2C(=O)[C@@H]2CCCN2C(=O)[C@H]([C@@H](C)CC)NC(=O)[C@H](CO)NC(=O)[C@H](CCCCN)NC(=O)[C@H]([C@@H](C)O)NC1=O)C(C)C [D-GLP-1-BT1],100.0 ± 0.0%,88 ± 6.2%,95.9 ± 2.3%,96.9 ± 2%,92 ± 3.9%,79 ± 4.6%,67.1 ± 4.9%,55.2 ± 0.6%,47.1 ± 1.4%,40.4 ± 1%,31.3 ± 0.7%,100.0 ± 0.0%,80.3 ± 3.6%,85.8 ± 2.7%,80.1 ± 2.1%,78.2 ± 3.9%,96.9 ± 3.1%,100 ± 2.5%,96.5 ± 2.1%,97.3 ± 3.6%,"remaining at 8 h, 30 μM (NEP24.11; pH 7.4, 8 hours, read-out: remaining amount after NEP24.11 hydrolysis): ~80%; remaining at 0.15 h, 60 μM (trypsin): 98 ± 3.1%; remaining at 0.25 h, 60 μM (trypsin): 95.9 ± 3.2%; remaining at 0.5 h, 60 μM (trypsin): 98.1 ± 4.4%; remaining at 1 h, 60 μM (trypsin): 91 ± 7.6%; Remaining peak area (%)/human serum [1]: 100.0 ± 0.0%; serum stability (in words) [1]: good serum stability; remaining at 0.5 h, 0.03 mM [1]: 88.2%; remaining at 2 h, 0.03 mM [1]: 92 ± 5.9%; remaining at 4 h, 0.03 mM [1]: 78.7 ± 5.7%; remaining at 8 h, 0.03 mM [1]: 58.2%; remaining at 12 h, 0.03 mM [1]: 43.6 ± 0.3%"
CC[C@H](C)[C@H](NC(=O)[C@H](Cc1ccccc1)NC(=O)[C@H](CCC(=O)O)NC(=O)[C@H](CCCCN)NC(=O)[C@H](C)NC(=O)[C@H](C)NC(=O)[C@H](CCC(N)=O)NC(=O)CNC(=O)[C@H](CCC(=O)O)NC(=O)[C@H](CC(C)C)NC(=O)[C@H](Cc1ccc(O)cc1)NC(=O)[C@H](CO)NC(=O)[C@H](CO)NC(=O)[C@@H](NC(=O)[C@H](CC(=O)O)NC(=O)[C@H](CO)NC(=O)[C@@H](NC(=O)[C@H](Cc1ccccc1)NC(=O)[C@@H](NC(=O)CNC(=O)[C@H](CCC(=O)O)NC(=O)[C@H](C)NC(=O)[C@H](Cc1c[nH]cn1)NC(=O)CNC(=O)CNC(=O)[C@@H](NC(=O)[C@@H]1CCCN1C(=O)[C@@H](NC(=O)CN)[C@@H](C)CC)[C@@H](C)CC)[C@@H](C)O)[C@@H](C)O)C(C)C)C(=O)N[C@@H](C)C(=O)N[C@@H](Cc1c[nH]c2ccccc12)C(=O)N[C@@H](CC(C)C)C(=O)N[C@H](C(=O)N[C@@H](CCCCN)C(=O)NCC(=O)N[C@@H](CCCNC(=N)N)C(=O)NCC(=O)NCC(=O)N[C@@H](CCCCN)C(=O)NCC(=O)N[C@H]1CSSC[C@@H](C(=O)N[C@@H](Cc2ccccc2)C(=O)O)NC(=O)[C@H]([C@@H](C)CC)NC(=O)[C@@H]2CCCN2C(=O)[C@@H]2CCCN2C(=O)[C@H]([C@@H](C)CC)NC(=O)[C@H](CO)NC(=O)[C@H](CCCCN)NC(=O)[C@H]([C@@H](C)O)NC(=O)[C@H](C)NC(=O)[C@H](CCCNC(=N)N)NC(=O)CNC1=O)C(C)C [D-GLP-1-BT9],100.0 ± 0.0%,101 ± 1.2%,98.7 ± 0.6%,98.8 ± 2.3%,100 ± 6.5%,94 ± 2%,54.9 ± 3.8%,43.3 ± 7%,34.5 ± 7.4%,27.1 ± 2.9%,17.4 ± 4.9%,100.0 ± 0.0%,88.4 ± 2.3%,79.3 ± 2.6%,69.8 ± 2.6%,58.6 ± 0.7%,90.3 ± 1.9%,92.2 ± 3.7%,97.3 ± 1%,94 ± 1.5%,"remaining at 0.15 h, 60 μM (trypsin): 94.9 ± 1.8%; remaining at 0.25 h, 60 μM (trypsin): 88.7 ± 3%; remaining at 0.5 h, 60 μM (trypsin): 90.8 ± 3.6%; remaining at 1 h, 60 μM (trypsin): 88.4 ± 3.9%; Remaining peak area (%)/human serum [1]: 100.0 ± 0.0%; serum stability (in words) [1]: good serum stability; remaining at 0.5 h, 0.03 mM [1]: 80.4 ± 4%; remaining at 2 h, 0.03 mM [1]: 53.6 ± 7.6%; remaining at 4 h, 0.03 mM [1]: 46.5 ± 3.5%; remaining at 8 h, 0.03 mM [1]: 7.2 ± 1.3%; remaining at 12 h, 0.03 mM [1]: 9.1 ± 3.9%"
